Data published in BindingDB's records for PubMed 35063633 (Kumamoto University, 2022).

Key:
[1] = Inhibition of human constitutive proteasome subunit beta type-1 in human erythrocytes using fluorogenic substrate by […]
[2] = Inhibition of human constitutive proteasome subunit beta type-2 in human erythrocytes using fluorogenic substrate by […]

Row | SMILES | IC50 [1] | IC50 [2]
1 | CCC(C)/C=C(\C)c1cc2c(cn1)C(=O)C1=C(N)C(=O)C(OC)=CC1=C2 (stereo unspecified) | 17 µM | 42 µM
2 | CCC(C)/C=C(\C)c1cc2c(cn1)C(=O)c1c(cc(OC)c(O)c1O)C2=O (stereo unspecified) | > 50 µM | > 50 µM
3 | CCC(C)/C=C(\C)C1=Cc2cc3c(c(O)c2CO1)C(=O)C(O)(CC(C)=O)C(OC)=C3 (stereo unspecified) | 19 µM | > 50 µM
